Values of other authors, collected in US6245797A, “Combination therapy for reducing the risks associated with cardio-and-cerebrovascular disease” (Merck & Co., Inc., priority 1998, dated 2001).

Details: Scandinavian Simvastatin Survival Study, over the course of the 5 year study

**Q.** Which “treated patients who die of their disease” value does the source give for `CCC(C)(C)C(=O)O[C@H]1C[C@@H](C)C=C2C=C[C@H](C)[C@H](CC[C@@H]3C[C@@H](O)CC(=O)O3)[C@H]21` [simvastatin] here?
**A.** 5%
